{
  "source": "paper PMC7228900",
  "about": "“From sequence to function: a new workflow for nitrilase identification” (Applied Microbiology and Biotechnology, 2020)",
  "tested_on": "T1, Nit09",
  "T1 construct": "His6-tagged, expressed in E. coli TOP10 from pBAD18, Ni-TED purified; gene 1005 bp",
  "assay": "GDH-coupled NADH oxidation at […] nm, Michaelis-Menten fit",
  "format": "biochemical, uncultured bacterium",
  "conditions": "37 °C, 0.1 M HEPES pH 8.0; fit up to 6 mM, substrate inhibition above 10 mM",
  "data": [
    {"compound": "N#CCc1ccccc1", "note": "[phenylacetonitrile]", "values": [
      {"measurement": "Km", "value": 1.29, "unit": "mM"}
    ]}
  ]
}
